The supplement of paper PMC11208160

Assay: recombinant UMI read abundance after kanamycin selection (control-corrected) (log10(CPM+1)); higher = more efficient recombination; extreme values may be limits of the assay; sequences stand for … in AGTGCAGAGAAAATCGGCCAGTTTTCTCTGCCTGCAGTCCGCATGCCGTGGGACCCCTTGGGTTCTAACCTGTTGCCTAGATTTATGCAGCGGACTGCCTTTCTCCCAAAGTGATAAACCGG…AGGTTGGTTTCACT; site = the 11-nt donor
Method in brief: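 Each donor and donor-binding-loop pair was tracked by a 12-nt UMI on a plasmid carrying a promoterless kanamycin gene. With a second plasmid supplying a fixed target and T7-inducible IS621 bridge recombinase, the pool was plated in Escherichia coli on IPTG (0.07 mM) plus kanamycin or unselected. Sequencing of recombinant UMIs across the donor–target junction gave counts expressed as log10(CPM+1) after replicate averaging and control-derived scaling.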
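Further: IS621 bridge recombinase in Escherichia coli cells against a fixed T5 target plasmid.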

| Sequence | recombinant UMI read abundance (log10) |
| --- | --- |
| CTGCTAACATGGACCGGTTTTCCCGGTAATCCGTATTTGCT (site CTGCTAGCTAG) | 0.313 |
| CTGCTAACATGGACCGGTTTTCCCGGTAATCCGTATTTGCT (site CTGCTATCTAG) | 0.474 |
| CTGCTACCATGGACCGGTTTTCCCGGTAATCCGTATTTGCA (site CTGCTACCTAG) | 0.00394 |
| CTGCTACCATGGACCGGTTTTCCCGGTAATCCGTATTTGCA (site CTGCTACCTCG) | 0.00238 |
| CTGCTACCATGGACCGGTTTTCCCGGTAATCCGTATTTGCA (site CTGCTACCTGG) | 0 |
| CTGCTACCATGGACCGGTTTTCCCGGTAATCCGTATTTGCA (site CTGCTACCTTG) | 0 |
| CTGCTACCATGGACCGGTTTTCCCGGTAATCCGTATTTGGG (site CTGCTACCTCC) | 0.0335 |
| CTGCTACCATGGACCGGTTTTCCCGGTAATCCGTATTTGGT (site CTGCTACCTAA) | 0.00859 |
| CTGCTACCATGGACCGGTTTTCCCGGTAATCCGTATTTGGT (site CTGCTACCTAC) | 0.00854 |
| CTGCTACCATGGACCGGTTTTCCCGGTAATCCGTATTTGGT (site CTGCTACCTAG) | 0 |
| CTGCTACCATGGACCGGTTTTCCCGGTAATCCGTATTTGGT (site CTGCTACCTAT) | 0.00703 |
| CTGCTGACATGGACCGGTTTTCCCGGTAATCCGTATTTGAT (site CTGCTGACTAT) | 2.13 |
| CTGCTTCCATGGACCGGTTTTCCCGGTAATCCGTATTTGGT (site CTGCTTCCTAC) | 0.0707 |
| CTGGAAACATGGACCGGTTTTCCCGGTAATCCGTATTTGAA (site CTGGAAACTTA) | 0.0938 |
| CTGGAAACATGGACCGGTTTTCCCGGTAATCCGTATTTGAA (site CTGGAAACTTC) | 0.988 |
| CTGGAAACATGGACCGGTTTTCCCGGTAATCCGTATTTGAA (site CTGGAAACTTG) | 0 |
| CTGGAAACATGGACCGGTTTTCCCGGTAATCCGTATTTGAA (site CTGGAAACTTT) | 2.09 |
| CTGGAAACATGGACCGGTTTTCCCGGTAATCCGTATTTGCA (site ATGGAAACTTG) | 0 |
| CTGGAAACATGGACCGGTTTTCCCGGTAATCCGTATTTGCA (site CAGGAAACTTG) | 1.85 |
| CTGGAAACATGGACCGGTTTTCCCGGTAATCCGTATTTGCA (site CCGGAAACTTG) | 1.93 |
| CTGGAAACATGGACCGGTTTTCCCGGTAATCCGTATTTGCA (site CGGGAAACTTG) | 0 |
| CTGGAAACATGGACCGGTTTTCCCGGTAATCCGTATTTGCA (site CTAGAAACTTG) | 2.19 |
| CTGGAAACATGGACCGGTTTTCCCGGTAATCCGTATTTGCA (site CTCGAAACTTG) | 0 |
| CTGGAAACATGGACCGGTTTTCCCGGTAATCCGTATTTGCA (site CTGAAAACTTG) | 0.744 |
| CTGGAAACATGGACCGGTTTTCCCGGTAATCCGTATTTGCA (site CTGCAAACTTG) | 0 |

| Sequence | recombinant UMI read abundance (log10) |
| --- | --- |
| CTGGAAACATGGACCGGTTTTCCCGGTAATCCGTATTTGCA (site CTGGAAACTAG) | 0 |
| CTGGAAACATGGACCGGTTTTCCCGGTAATCCGTATTTGCA (site CTGGAAACTCG) | 0.843 |
| CTGGAAACATGGACCGGTTTTCCCGGTAATCCGTATTTGCA (site CTGGAAACTGG) | 0 |
| CTGGAAACATGGACCGGTTTTCCCGGTAATCCGTATTTGCA (site CTGGAAACTTA) | 1.34 |
| CTGGAAACATGGACCGGTTTTCCCGGTAATCCGTATTTGCA (site CTGGAAACTTC) | 0 |
| CTGGAAACATGGACCGGTTTTCCCGGTAATCCGTATTTGCA (site CTGGAAACTTG) | 2.2 |
| CTGGAAACATGGACCGGTTTTCCCGGTAATCCGTATTTGCA (site CTGGAAACTTT) | 2.16 |
| CTGGAAACATGGACCGGTTTTCCCGGTAATCCGTATTTGCA (site CTGGAACCTTG) | 0.0058 |
| CTGGAAACATGGACCGGTTTTCCCGGTAATCCGTATTTGCA (site CTGGAAGCTTG) | 1.51 |
| CTGGAAACATGGACCGGTTTTCCCGGTAATCCGTATTTGCA (site CTGGAATCTTG) | 1.21 |
| CTGGAAACATGGACCGGTTTTCCCGGTAATCCGTATTTGCA (site CTGGACACTTG) | 0.00329 |
| CTGGAAACATGGACCGGTTTTCCCGGTAATCCGTATTTGCA (site CTGGAGACTTG) | 1.43 |
| CTGGAAACATGGACCGGTTTTCCCGGTAATCCGTATTTGCA (site CTGGATACTTG) | 0.526 |
| CTGGAAACATGGACCGGTTTTCCCGGTAATCCGTATTTGCA (site CTGGCAACTTG) | 0.416 |
| CTGGAAACATGGACCGGTTTTCCCGGTAATCCGTATTTGCA (site CTGGGAACTTG) | 0.596 |
| CTGGAAACATGGACCGGTTTTCCCGGTAATCCGTATTTGCA (site CTGGTAACTTG) | 0.00624 |
| CTGGAAACATGGACCGGTTTTCCCGGTAATCCGTATTTGCA (site CTGTAAACTTG) | 0.123 |
| CTGGAAACATGGACCGGTTTTCCCGGTAATCCGTATTTGCA (site CTTGAAACTTG) | 0.578 |
| CTGGAAACATGGACCGGTTTTCCCGGTAATCCGTATTTGCA (site GTGGAAACTTG) | 0.00967 |
| CTGGAAACATGGACCGGTTTTCCCGGTAATCCGTATTTGCA (site TTGGAAACTTG) | 0 |
| CTGGAAACATGGACCGGTTTTCCCGGTAATCCGTATTTGCC (site CTGGAAACTAG) | 0 |
| CTGGAAACATGGACCGGTTTTCCCGGTAATCCGTATTTGCC (site CTGGAAACTCG) | 0 |
| CTGGAAACATGGACCGGTTTTCCCGGTAATCCGTATTTGCC (site CTGGAAACTGG) | 0 |
| CTGGAAACATGGACCGGTTTTCCCGGTAATCCGTATTTGCC (site CTGGAAACTTG) | 0.22 |
| CTGGAAACATGGACCGGTTTTCCCGGTAATCCGTATTTGCG (site CTGGAAACTAG) | 0 |

| Sequence | recombinant UMI read abundance (log10) |
| --- | --- |
| CTGGAAACATGGACCGGTTTTCCCGGTAATCCGTATTTGCG (site CTGGAAACTCG) | 2.37 |
| CTGGAAACATGGACCGGTTTTCCCGGTAATCCGTATTTGCG (site CTGGAAACTGG) | 0 |
| CTGGAAACATGGACCGGTTTTCCCGGTAATCCGTATTTGCG (site CTGGAAACTTG) | 1.72 |
| CTGGAAACATGGACCGGTTTTCCCGGTAATCCGTATTTGGT (site CTGGAAACTAC) | 1.92 |
| CTGGAATCATGGACCGGTTTTCCCGGTAATCCGTATTTGCA (site CTGGAAACTTG) | 1.56 |
| CTGGAATCATGGACCGGTTTTCCCGGTAATCCGTATTTGCA (site CTGGAACCTTG) | 0 |
| CTGGAATCATGGACCGGTTTTCCCGGTAATCCGTATTTGCA (site CTGGAAGCTTG) | 0 |
| CTGGAATCATGGACCGGTTTTCCCGGTAATCCGTATTTGCA (site CTGGAATCTTG) | 2.19 |
| CTGGCATCATGGACCGGTTTTCCCGGTAATCCGTATTTGGC (site CTGGCATCTGC) | 2.75 |
| CTGGCGTCATGGACCGGTTTTCCCGGTAATCCGTATTTGAG (site CTGGCGTCTCT) | 0.929 |
| CTGGGAACATGGACCGGTTTTCCCGGTAATCCGTATTTGCA (site CTGGAAACTTG) | 1.87 |
| CTGGGAACATGGACCGGTTTTCCCGGTAATCCGTATTTGCA (site CTGGCAACTTG) | 0.789 |
| CTGGGAACATGGACCGGTTTTCCCGGTAATCCGTATTTGCA (site CTGGGAACTTG) | 2.39 |
| CTGGGAACATGGACCGGTTTTCCCGGTAATCCGTATTTGCA (site CTGGTAACTTG) | 0.262 |
| CTGGGCGCATGGACCGGTTTTCCCGGTAATCCGTATTTGCA (site AATACGCCTAT) | 0.0174 |
| CTGGTATCATGGACCGGTTTTCCCGGTAATCCGTATTTGCC (site CTAGTATCTGT) | 0 |
| CTGGTATCATGGACCGGTTTTCCCGGTAATCCGTATTTGCC (site CTGGTATCTGG) | 0 |
| CTGGTTACATGGACCGGTTTTCCCGGTAATCCGTATTTGGC (site CTGGTTACTGC) | 1.74 |
| CTGTACGCATGGACCGGTTTTCCCGGTAATCCGTATTTGGT (site CTGTACGCTAC) | 1.26 |
| CTGTAGCCATGGACCGGTTTTCCCGGTAATCCGTATTTGAT (site CTGTAGCCTAT) | 0.748 |
| CTGTAGGCATGGACCGGTTTTCCCGGTAATCCGTATTTGGC (site ATGTAGGCTGC) | 0.626 |
| CTGTAGGCATGGACCGGTTTTCCCGGTAATCCGTATTTGGC (site CTGTAGGCTGC) | 2.01 |
| CTGTAGGCATGGACCGGTTTTCCCGGTAATCCGTATTTGGC (site GTGTAGGCTGC) | 0 |
| CTGTAGGCATGGACCGGTTTTCCCGGTAATCCGTATTTGGC (site TTGTAGGCTGC) | 0 |
| CTGTAGGCATGGACCGGTTTTCCCGGTAATCCGTATTTGGG (site CTGTAGGCTCC) | 0.27 |
